Entries after “also recorded” stand apart in the source; their conditions may differ.
Key:
[1] = tested on: 24-hydroxylase (24 Ohase) gene promoter upstream of a luciferase reporter gene in ROS 1.7/2.8 (bone) cells; assay: In vitro transcription assay (luciferase reporter); assay type: cell-based; conditions: 24-hydroxylase promoter luciferase, sixteen hours after dosing; FIG. 3; read-out: EC50, stimulation of gene transcription in bone cells
Protocol: In Vitro Transcription Assay.
Transcription activity was measured in ROS 1.7/2.8 (bone) cells that were stably transfected with a 24-hydroxylase (24 Ohase) gene promoter upstream of a luciferase reporter gene. (See Arbour et al., 1998). Cells were given a range of doses. Sixteen hours after dosing the cells were harvested and luciferase activities were measured using a luminometer. RLU=relative luciferase units.

[2] = tested on: bone calcium mobilization; assay: Bone calcium mobilization (serum calcium) in vitamin D-deficient rats; assay type: in vivo, Sprague-Dawley rats; conditions: low calcium diet (0.02%), ip once daily for 4 consecutive days, DA2HE up to 35100 pmol/day, FIG. 4
Description: (§1) Intestinal Calcium Transport and Bone Calcium Mobilization Male, weanling Sprague-Dawley rats were placed on Diet 11 (see Suda et al., J. Nutr. 100:1049, 1970) (0.47% Ca)+vitamins AEK for one week followed by Diet 11 (0.02% Ca)+vitamins AEK for 3 weeks. The rats were then switched to the same diet containing 0.47% Ca for one week followed by two weeks on the same diet containing 0.02% Ca. Dose administration began during the last week on 0.02% calcium diet. Four consecutive ip doses were given approximately 24 hours apart. Twenty-four hours after the last dose, blood was collected from the severed neck and the concentration of serum calcium determined by atomic absorption spectrometry as a measure of bone calcium mobilization. The first 10 cm of the intestine was also collected for intestinal calcium transport analysis using the everted gut sac method.

[3] = tested on: Human promyelocyte leukemia (HL60) cells; assay: HL-60 differentiation (nitro blue tetrazolium reduction); assay type: cell-based; conditions: four days, FIG. 2
Protocol: The study drugs were dissolved in ethanol and the concentrations determined using UV spectrophotometry. Serial dilutions were prepared so that a range of drug concentrations could be tested without changing the final concentration of ethanol (≦0.2%) present in the cell cultures.
Human promyelocyte leukemia (HL60) cells were grown in RPMI-1640 medium containing 10% fetal bovine serum. The cells were incubated at 37° C. in the presence of 5% CO2.
HL60 cells were plated at 1.2×10^5 cells/ml. Eighteen hours after plating, cells in duplicate were treated with drug. Four days later, the cells were harvested and a nitro blue tetrazolium reduction assay was performed. (See Collins et al., 1979: J. Exp. Med. 149:969-974), The percentage of differentiated cells was determined by counting a total of 200 cells and recording the number that, contained intracellular black-blue formazan deposits. Verification of differentiation to monocytic cells was determined by measuring phagocytic activity.

[4] = target: T1, full-length recombinant rat vitamin D receptor (Rattus norvegicus, UniProt P13053); assay: Vitamin D receptor binding, competition with [3H]-1,25(OH)2D3; conditions: FIG. 1
T1 construct: Full-length recombinant rat receptor was expressed in E. coli BL21 (DE3) Codon Plus RIL cells; histidine tag (C); made in house; host or cells: E. coli BL21 (DE3) Codon Plus RIL
T1 sequence (P13053 1-423): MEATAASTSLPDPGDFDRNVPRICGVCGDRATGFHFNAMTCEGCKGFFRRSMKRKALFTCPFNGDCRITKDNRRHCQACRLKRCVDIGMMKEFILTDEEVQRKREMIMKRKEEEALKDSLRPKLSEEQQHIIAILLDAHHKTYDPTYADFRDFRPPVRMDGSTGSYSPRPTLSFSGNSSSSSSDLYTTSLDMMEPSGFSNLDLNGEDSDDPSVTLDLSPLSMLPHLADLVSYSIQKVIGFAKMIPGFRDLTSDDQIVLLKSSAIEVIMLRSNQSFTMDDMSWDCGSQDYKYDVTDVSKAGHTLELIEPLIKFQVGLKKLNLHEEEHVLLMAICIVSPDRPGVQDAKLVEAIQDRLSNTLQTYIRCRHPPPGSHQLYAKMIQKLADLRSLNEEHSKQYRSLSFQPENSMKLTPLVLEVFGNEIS
Description: Vitamin D Receptor Binding
Full-length recombinant rat receptor was expressed in E. coli BL21 (DE3) Codon Plus RIL cells and purified to homogeneity using two different column chromatography systems. The first system was a nickel affinity resin that utilizes the C-terminal histidine tag on this protein. The protein that was eluted from this resin was further purified using ion exchange chromatography (S-Sepharose Fast Flow). Aliquots of the purified protein were quick frozen in liquid nitrogen and stored at −80° C. until use. For use in binding assays, the protein was diluted in TEDK50 (50 mM Tris, 1.5 mM EDTA, pH 7.4, 5 mM DTT, 150 mM KCI) with 0.1% Chaps detergent. The receptor protein and ligand concentration was optimized such that no more than 20% of the added radiolabeled ligand was bound to the receptor.
Assay Conditions. Radiolabeled and unlabeled ligands were added to 100 mcl of the diluted protein at a final ethanol concentration of ≦10%, mixed and incubated overnight on ice to reach binding equilibrium. The following day, 100 mcl of hydroxylapatite slurry (50%) was added to each tube and mixed at 10-minute intervals for 30 minutes. The hydroxylapaptite was collected by centrifugation and then washed three times with Tris-EDTA buffer (50 mM Tris, 1.5 mM EDTA, phi 7.4) containing 0.5% Triton X-100. After the final wash, the pellets were transferred to scintillation vials containing 4 ml of Biosafe II scintillation cocktail, mixed and placed in a scintillation counter. Total binding was determined from the tubes containing only radiolabeled ligand.

[5] = tested on: intestinal calcium transport; assay: Intestinal calcium transport (everted gut sac) in vitamin D-deficient rats; assay type: in vivo, Sprague-Dawley rats; conditions: 4 consecutive ip doses, FIG. 5
Description: as §1

**Q.** `C=C1/C(=C\C=C2/CCC[C@]3(C)[C@@H]([C@H](C)CCCC(C)(C)O)CC[C@@H]23)C[C@@H](O)C[C@@H]1O` [1α,25-dihydroxyvitamin D3, reference compound] was tested. Which EC50 [1] did it give?
**A.** 0.08 nM

**Q.** What about the “bone calcium mobilization activity (serum calcium)” value [2] of the same compound?
**A.** increased serum calcium levels

**Q.** And the EC50 [3]?
**A.** 3 nM

**Q.** For `C[C@H](CCCC(C)(C)O)C1CCC2/C(=C/C=C(CCO)CCO)CCC[C@@]21C` (some centres unmarked) [DA2HE, seco-A-2,19-dinor-1,25-dihydroxyvitamin D3], which “VDR binding activity relative to 1α,25-dihydroxyvitamin D3” value ([4]; compared to natural hormone) is on record?
**A.** about 10 times less activity

**Q.** And the Ki ([4]; full-length recombinant rat vitamin D receptor, read-out: Ki, competition with [3H]-1,25(OH)2D3 for binding to VDR)?
**A.** 0.4 nM

**Q.** What about the “VDR binding activity relative to standard 1α,25-(OH)2D3, in log” value ([4]; less activity than standard) of the same compound?
**A.** about one

**Q.** And the “potency in promoting active calcium transport across the gut relative to 1α,25(OH)2D3” value [5]?
**A.** about 10 times less potent

**Q.** What about the “intestinal calcium transport activity” value ([5]; low calcium diet (0.02%), everted gut sac) of the same compound?
**A.** relatively high intestinal calcium transport activity which increases in a dose dependent manner

**Q.** And the EC50 [1]?
**A.** 40 nM

**Q.** What about the “bone calcium mobilization activity (serum calcium)” value [2] of the same compound?
**A.** lacks any bone calcium mobilization activity; also recorded: no mobilization of bone calcium

**Q.** And the EC50 ([3]; Homo sapiens, HL-60, 96 h)?
**A.** 300 nM

From US8785422B2, “A-ring modified 19-nor-vitamin D analogs and their uses” (Wisconsin Alumni Research Foundation, priority 2012, dated 2014)
